Laboratory results from ChEMBL document CHEMBL1201862, “PubChem BioAssay data set” (2004).
One block for each molecule: values may come before it. Activity calls are given as the source filed them.

Tests used:
[1] = molecular target: T1, Mannose-6-phosphate isomerase (Homo sapiens, UniProt P34949); experiment: human PMI inhibitors, high substrate, primary screen, biochemical, fluorescence intensity, high mannose 6-phosphate (AID 1220)
T1 sequence (P34949 whole entry): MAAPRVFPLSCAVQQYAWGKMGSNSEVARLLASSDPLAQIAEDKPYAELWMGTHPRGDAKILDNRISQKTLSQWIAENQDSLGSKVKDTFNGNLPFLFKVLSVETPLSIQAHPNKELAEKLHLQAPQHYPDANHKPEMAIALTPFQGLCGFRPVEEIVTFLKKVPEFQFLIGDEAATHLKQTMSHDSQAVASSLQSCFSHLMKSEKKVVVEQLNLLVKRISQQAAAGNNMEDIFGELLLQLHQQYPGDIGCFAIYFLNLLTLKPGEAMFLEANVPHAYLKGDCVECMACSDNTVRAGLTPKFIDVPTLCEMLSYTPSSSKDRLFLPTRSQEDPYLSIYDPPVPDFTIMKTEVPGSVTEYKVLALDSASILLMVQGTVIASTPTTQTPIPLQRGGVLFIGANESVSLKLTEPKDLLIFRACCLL

[2] = molecular target: Histone-lysine N-methyltransferase NSD2 (Homo sapiens, UniProt O96028); format: biochemical
[3] = inhibitors of firefly luciferase expression or activity, dose response, H4 neuroglioma cells, luminescence (AID 1990); format: functional, cell-based
[4] = molecular target: Mitogen-activated protein kinase 8 (Homo sapiens, UniProt P45983); format: functional;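 further: value comes from one member of a kinome-wide kinase profiling panel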
[5] = molecular target: Serine/threonine-protein kinase MRCK alpha (Homo sapiens, UniProt Q5VT25); format: functional
[6] = molecular target: Serine/threonine-protein kinase Nek4 (Homo sapiens, UniProt P51957); format: functional
[7] = molecular target: Maternal embryonic leucine zipper kinase (Homo sapiens, UniProt Q14680); format: functional
[8] = molecular target: Calcium/calmodulin-dependent protein kinase type 1 (Homo sapiens, UniProt Q14012); format: functional
[9] = molecular target: Tyrosine-protein kinase FRK (Homo sapiens, UniProt P42685); format: functional;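 further: FRK tested as one member of a kinome panel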
[10] = molecular target: Cyclin-dependent kinase 1 (Homo sapiens, UniProt P06493); format: functional;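 further: Kinome-wide panel profiling, with the target listed as panel member CDC2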
[11] = molecular target: Serine/threonine-protein kinase D2 (Homo sapiens, UniProt Q9BZL6); format: functional;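 further: measured against PRKD2 as one member of a kinome-wide kinase profiling panel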
[12] = molecular target: Serine/threonine-protein kinase pim-2 (Homo sapiens, UniProt Q9P1W9); format: functional;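 further: value comes from a broad kinase panel profiling study in which PIM2 was one of the panel members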
[13] = molecular target: Tyrosine-protein kinase SYK (Homo sapiens, UniProt P43405); format: functional
[14] = molecular target: Tyrosine-protein kinase Fer (Homo sapiens, UniProt P16591); format: functional;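 further: FER tested as one member of a kinome panel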
[15] = molecular target: Vascular endothelial growth factor receptor 1 (Homo sapiens, UniProt P17948); format: functional;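 further: measured within a kinome-wide profiling panel, FLT1 as the panel member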
[16] = molecular target: Misshapen-like kinase 1 (Homo sapiens, UniProt Q8N4C8); format: functional;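 further: kinome panel screen with MINK as the panel member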
[17] = molecular target: Serine/threonine-protein kinase pim-1 (Homo sapiens, UniProt P11309); format: functional
[18] = molecular target: MAP kinase-activated protein kinase 5 (Homo sapiens, UniProt Q8IW41); format: functional;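 further: measured as one member of a kinome panel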
[19] = molecular target: Ephrin type-A receptor 2 (Homo sapiens, UniProt P29317); format: functional;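 further: EPHA2 tested as one member of a kinome-wide kinase panel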
[20] = molecular target: 5'-AMP-activated protein kinase catalytic subunit alpha-1 (Homo sapiens, UniProt Q13131); format: functional
[21] = molecular target: Activated CDC42 kinase 1 (Homo sapiens, UniProt Q07912); experiment: Navigating the Kinome. Panel member name: ACK1; format: functional
[22] = molecular target: Aurora kinase B (Homo sapiens, UniProt Q96GD4); format: functional
[23] = molecular target: Cyclin-dependent kinase 7 (Homo sapiens, UniProt P50613); format: functional;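 further: value comes from a kinome-wide kinase profiling panel in which CDK7 is one member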
[24] = molecular target: Tyrosine-protein kinase Fyn (Homo sapiens, UniProt P06241); format: functional
[25] = molecular target: Mitogen-activated protein kinase 13 (Homo sapiens, UniProt O15264); format: functional
[26] = molecular target: Protein kinase C iota type (Homo sapiens, UniProt P41743); format: functional;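 further: measured within a kinome-wide kinase panel, PRKCI as panel member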
[27] = molecular target: RAC-gamma serine/threonine-protein kinase (Homo sapiens, UniProt Q9Y243); format: functional
[28] = molecular target: Induced myeloid leukemia cell differentiation protein Mcl-1 (Homo sapiens, UniProt Q07820); format: functional
[29] = molecular target: T2, Caspase-3 (Homo sapiens, UniProt P42574); experiment: procaspase-3 activators, dose response, biochemical, absorbance (AID 489014)
T2 sequence (P42574 whole entry): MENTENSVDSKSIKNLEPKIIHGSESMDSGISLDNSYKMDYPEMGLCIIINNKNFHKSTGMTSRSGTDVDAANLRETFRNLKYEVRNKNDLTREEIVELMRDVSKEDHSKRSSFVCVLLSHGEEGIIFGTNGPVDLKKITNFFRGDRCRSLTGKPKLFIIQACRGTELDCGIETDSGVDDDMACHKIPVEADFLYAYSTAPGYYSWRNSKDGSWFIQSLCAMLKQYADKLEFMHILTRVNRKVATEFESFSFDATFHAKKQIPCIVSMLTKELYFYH

[30] = tested on: A-375; experiment: MITF: Counter assay: A375 proliferation Measured in Cell-Based System Using Plate Reader - 2084-03_Inhibitor_Dose_DryPowder_Activity. [Related pubchem assays (depositor defined):AID488944]; format: functional; details: Homo sapiens

Sequence of Calcium/calmodulin-dependent protein kinase type 1 (Q14012 whole entry): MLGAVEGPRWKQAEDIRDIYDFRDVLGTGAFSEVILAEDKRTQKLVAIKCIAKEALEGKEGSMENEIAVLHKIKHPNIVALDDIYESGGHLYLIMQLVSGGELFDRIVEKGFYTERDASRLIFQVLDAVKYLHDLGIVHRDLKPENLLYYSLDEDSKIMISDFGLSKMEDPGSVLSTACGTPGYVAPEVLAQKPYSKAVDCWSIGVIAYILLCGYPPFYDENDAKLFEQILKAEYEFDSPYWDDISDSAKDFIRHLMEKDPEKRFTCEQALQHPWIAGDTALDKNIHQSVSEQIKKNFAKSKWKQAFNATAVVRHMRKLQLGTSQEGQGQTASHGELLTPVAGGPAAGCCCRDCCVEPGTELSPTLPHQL
Sequence of Cyclin-dependent kinase 7 (P50613 whole entry): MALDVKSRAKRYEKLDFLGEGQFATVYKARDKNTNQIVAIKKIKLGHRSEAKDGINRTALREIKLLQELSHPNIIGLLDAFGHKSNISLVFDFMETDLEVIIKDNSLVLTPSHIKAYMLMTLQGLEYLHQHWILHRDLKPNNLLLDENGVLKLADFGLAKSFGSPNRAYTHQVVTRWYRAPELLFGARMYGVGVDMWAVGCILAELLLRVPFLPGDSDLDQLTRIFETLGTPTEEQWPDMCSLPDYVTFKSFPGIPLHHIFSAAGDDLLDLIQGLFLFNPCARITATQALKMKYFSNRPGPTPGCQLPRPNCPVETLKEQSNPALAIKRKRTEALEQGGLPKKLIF
Sequence of Serine/threonine-protein kinase D2 (Q9BZL6 whole entry): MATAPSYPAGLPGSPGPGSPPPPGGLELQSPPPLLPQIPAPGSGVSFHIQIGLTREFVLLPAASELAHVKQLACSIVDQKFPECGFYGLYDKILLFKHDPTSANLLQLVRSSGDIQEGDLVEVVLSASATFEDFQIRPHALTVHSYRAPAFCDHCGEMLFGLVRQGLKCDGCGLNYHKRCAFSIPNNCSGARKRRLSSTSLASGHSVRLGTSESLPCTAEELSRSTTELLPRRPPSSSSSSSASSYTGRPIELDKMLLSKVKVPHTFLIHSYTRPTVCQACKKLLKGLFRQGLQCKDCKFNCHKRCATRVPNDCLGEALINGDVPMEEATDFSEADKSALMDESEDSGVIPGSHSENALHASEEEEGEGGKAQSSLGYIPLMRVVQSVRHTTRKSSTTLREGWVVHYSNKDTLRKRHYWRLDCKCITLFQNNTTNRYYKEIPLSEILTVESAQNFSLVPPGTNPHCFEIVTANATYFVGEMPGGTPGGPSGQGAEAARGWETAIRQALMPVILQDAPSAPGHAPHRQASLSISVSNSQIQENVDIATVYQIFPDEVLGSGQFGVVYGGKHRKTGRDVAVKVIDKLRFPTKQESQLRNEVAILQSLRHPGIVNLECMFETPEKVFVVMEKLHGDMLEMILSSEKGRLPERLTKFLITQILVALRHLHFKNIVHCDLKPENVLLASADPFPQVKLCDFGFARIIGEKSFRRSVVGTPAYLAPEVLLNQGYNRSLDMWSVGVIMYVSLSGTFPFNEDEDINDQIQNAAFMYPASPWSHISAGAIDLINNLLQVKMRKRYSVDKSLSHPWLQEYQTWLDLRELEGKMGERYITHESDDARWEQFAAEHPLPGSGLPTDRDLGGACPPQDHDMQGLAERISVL
Sequence of RAC-gamma serine/threonine-protein kinase (Q9Y243 whole entry): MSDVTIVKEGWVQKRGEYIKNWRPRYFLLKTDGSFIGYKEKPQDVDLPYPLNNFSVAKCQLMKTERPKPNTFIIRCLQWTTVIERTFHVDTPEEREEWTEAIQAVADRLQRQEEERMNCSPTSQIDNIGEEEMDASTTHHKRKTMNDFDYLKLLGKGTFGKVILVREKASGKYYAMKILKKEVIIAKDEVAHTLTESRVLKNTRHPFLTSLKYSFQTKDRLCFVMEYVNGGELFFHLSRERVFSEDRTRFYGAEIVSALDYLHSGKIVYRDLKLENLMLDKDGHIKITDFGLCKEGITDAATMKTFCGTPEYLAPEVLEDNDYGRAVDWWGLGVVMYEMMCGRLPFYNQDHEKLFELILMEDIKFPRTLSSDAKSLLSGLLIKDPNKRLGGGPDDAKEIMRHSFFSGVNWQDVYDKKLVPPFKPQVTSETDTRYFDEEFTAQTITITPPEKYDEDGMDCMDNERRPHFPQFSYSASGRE
Sequence of Maternal embryonic leucine zipper kinase (Q14680 whole entry): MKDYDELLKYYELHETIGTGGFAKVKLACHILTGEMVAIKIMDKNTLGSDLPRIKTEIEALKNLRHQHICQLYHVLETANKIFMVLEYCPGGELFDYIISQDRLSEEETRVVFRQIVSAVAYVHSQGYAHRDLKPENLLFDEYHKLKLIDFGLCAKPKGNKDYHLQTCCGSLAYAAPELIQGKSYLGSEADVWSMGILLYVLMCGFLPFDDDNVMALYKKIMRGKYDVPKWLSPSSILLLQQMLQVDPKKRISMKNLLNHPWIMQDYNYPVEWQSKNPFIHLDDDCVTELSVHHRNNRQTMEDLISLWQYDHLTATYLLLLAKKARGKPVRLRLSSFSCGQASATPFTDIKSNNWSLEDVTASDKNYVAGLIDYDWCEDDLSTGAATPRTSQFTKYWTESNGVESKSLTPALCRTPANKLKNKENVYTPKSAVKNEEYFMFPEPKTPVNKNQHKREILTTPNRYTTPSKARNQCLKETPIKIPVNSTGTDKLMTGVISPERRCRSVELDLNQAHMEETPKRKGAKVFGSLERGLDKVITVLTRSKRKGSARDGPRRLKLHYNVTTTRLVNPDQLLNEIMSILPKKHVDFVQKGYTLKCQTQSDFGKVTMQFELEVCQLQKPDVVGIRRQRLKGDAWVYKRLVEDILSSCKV
Sequence of Serine/threonine-protein kinase MRCK alpha (Q5VT25 whole entry): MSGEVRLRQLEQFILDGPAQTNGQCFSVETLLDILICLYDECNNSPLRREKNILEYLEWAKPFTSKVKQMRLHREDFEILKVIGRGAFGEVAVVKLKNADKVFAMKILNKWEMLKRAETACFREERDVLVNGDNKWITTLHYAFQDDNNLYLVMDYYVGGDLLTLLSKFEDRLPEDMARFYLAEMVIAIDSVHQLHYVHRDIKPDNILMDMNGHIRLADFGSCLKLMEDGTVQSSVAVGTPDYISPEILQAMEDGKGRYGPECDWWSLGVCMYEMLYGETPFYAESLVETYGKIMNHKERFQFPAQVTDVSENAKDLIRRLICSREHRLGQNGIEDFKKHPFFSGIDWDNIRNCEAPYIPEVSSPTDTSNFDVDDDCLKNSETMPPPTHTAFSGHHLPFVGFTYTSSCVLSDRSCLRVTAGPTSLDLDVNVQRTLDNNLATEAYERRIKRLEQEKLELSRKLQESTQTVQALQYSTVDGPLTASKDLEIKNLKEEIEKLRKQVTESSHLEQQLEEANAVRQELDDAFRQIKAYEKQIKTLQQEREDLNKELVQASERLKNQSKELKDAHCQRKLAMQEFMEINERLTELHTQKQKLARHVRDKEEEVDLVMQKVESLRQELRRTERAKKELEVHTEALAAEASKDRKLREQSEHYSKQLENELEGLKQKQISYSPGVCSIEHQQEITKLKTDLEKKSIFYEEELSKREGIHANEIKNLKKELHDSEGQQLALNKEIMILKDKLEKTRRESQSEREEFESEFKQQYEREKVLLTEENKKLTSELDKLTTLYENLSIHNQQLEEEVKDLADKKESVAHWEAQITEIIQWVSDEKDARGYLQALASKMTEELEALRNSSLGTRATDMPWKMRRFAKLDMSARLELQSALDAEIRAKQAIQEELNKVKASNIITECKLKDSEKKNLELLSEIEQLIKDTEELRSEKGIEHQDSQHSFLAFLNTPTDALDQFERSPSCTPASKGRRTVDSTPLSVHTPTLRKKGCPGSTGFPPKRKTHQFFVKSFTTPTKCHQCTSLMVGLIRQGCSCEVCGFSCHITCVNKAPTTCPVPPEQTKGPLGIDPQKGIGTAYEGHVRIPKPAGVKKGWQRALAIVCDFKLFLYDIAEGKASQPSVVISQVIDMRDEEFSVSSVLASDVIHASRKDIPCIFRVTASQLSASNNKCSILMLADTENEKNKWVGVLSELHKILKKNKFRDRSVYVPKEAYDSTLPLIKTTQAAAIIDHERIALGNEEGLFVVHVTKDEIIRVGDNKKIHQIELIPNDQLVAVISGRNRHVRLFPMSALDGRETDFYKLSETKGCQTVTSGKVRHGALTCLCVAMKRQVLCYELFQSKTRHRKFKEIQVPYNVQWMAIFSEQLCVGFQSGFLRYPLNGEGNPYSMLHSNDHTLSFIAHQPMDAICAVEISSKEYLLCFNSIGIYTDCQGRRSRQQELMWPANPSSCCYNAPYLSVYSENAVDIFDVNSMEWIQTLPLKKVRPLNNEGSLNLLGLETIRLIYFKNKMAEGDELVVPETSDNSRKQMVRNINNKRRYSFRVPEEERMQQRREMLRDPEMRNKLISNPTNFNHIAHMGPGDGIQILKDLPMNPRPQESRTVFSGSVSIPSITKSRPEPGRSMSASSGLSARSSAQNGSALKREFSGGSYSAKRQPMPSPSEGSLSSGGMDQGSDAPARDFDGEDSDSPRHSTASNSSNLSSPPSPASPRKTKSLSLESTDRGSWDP
Sequence of Tyrosine-protein kinase FRK (P42685 whole entry): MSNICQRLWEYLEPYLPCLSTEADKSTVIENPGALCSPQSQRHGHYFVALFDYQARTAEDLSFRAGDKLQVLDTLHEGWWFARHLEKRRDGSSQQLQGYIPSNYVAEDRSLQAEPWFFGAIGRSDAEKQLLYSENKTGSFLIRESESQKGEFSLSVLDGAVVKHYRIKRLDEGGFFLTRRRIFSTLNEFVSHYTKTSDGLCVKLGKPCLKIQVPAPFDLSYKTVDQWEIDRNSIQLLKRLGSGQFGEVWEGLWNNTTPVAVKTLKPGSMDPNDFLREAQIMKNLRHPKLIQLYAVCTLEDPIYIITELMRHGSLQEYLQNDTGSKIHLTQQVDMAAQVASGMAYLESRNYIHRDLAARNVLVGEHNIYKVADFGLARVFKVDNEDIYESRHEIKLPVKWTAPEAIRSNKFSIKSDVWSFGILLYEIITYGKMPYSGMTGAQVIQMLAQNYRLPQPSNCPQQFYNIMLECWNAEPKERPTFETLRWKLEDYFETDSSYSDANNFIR

SMILES: CC(C)N(C(=O)Nc1ccc2nsnc2c1)C(C)C
- IC50 [1]: > 50 µM (not active)

SMILES: NS(=O)(=O)c1ccc(NC2=CC(=O)C(=O)c3ccccc32)cc1
- AC50 [2]: 3.1 µM (active)
- EC50 [3]: > 120 µM (not active)

- Ki [4]: > 3.16 µM (inactive)
- Ki [5]: 126 nM (active)
- Ki [6]: > 6.31 µM (inactive)
- Ki [7]: 316 nM (active)
- Ki [8]: > 6.31 µM (inactive)
- Ki [9]: > 2.51 µM (inactive)
- Ki [10]: 31.6 nM (active)
- Ki [11]: 200 nM (active)
- Ki [12]: > 2 µM (inactive)
- Ki [13]: > 1.58 µM (inactive)
- Ki [14]: 398 nM (active)
- Ki [15]: 398 nM (active)
- Ki [16]: 7.94 nM (active)
- Ki [17]: > 5.01 µM (inactive)
- Ki [18]: > 1.58 µM (inactive)
- Ki [19]: > 3.16 µM (inactive)
- Ki [20]: > 2 µM (inactive)
- Ki [21]: > 3.98 µM (inactive)
- Ki [22]: > 6.31 µM (inactive)
- Ki [23]: > 6.31 µM (inactive)
- Ki [24]: > 794 nM (inactive)
- Ki [25]: 1.26 µM (active)
- Ki [26]: > 5.01 µM (inactive)
- Ki [27]: > 10 µM (inactive)
SMILES: Clc1cc(-c2c[nH]c3ncccc23)nc(NC2CCCCC2)n1

SMILES: O=C(N/N=C/c1ccc(O)cc1O)c1ccc(CN2C(=O)c3cccc4cccc2c34)cc1
- IC50 [28]: 1.47 µM (active)
- EC50 [29]: > 85.3 µM (inactive)

SMILES: CCC(=O)NC(c1ccccc1OC)c1ccc2cccnc2c1O (stereo not given)
- AC50 [30]: 35 µM (active)
